Experimental data: US20090131354A1, “miR-126 REGULATED GENES AND PATHWAYS AS TARGETS FOR THERAPEUTIC INTERVENTION” (priority 2007, published 2009)

System: A549 cells
Assay: mRNA array gene expression analysis after transfection
Assay type: cell-based, human

## hsa-miR-126 (UCGUACCGUGAGUAAUAAUGC; synthetic pre-miR form, further chemistry not given here) [Synthetic hsa-miR-126 (Pre-miR™-hsa-miR-126, Ambion cat. no. AM17100)]
  Δ log2 PRNP mRNA: −0.8862 log2
A549, 30 nM
  Δ log2 ABAT mRNA: 0.7144 log2
  Δ log2 ABCC1 mRNA: −1.371 log2
  Δ log2 ABHD3 mRNA: −1.85 log2
  Δ log2 ACSM3 mRNA: 1.028 log2
  Δ log2 ACTR2 mRNA: 0.8699 log2
  Δ log2 ADAM9 mRNA: −1.175 log2
  Δ log2 ADK mRNA: −1.161 log2
  Δ log2 AES mRNA: −1.21 log2
  Δ log2 AHNAK mRNA: −1.362 log2
  Δ log2 ALDH6A1 mRNA: 0.9207 log2
  Δ log2 ANG /// RNASE4 mRNA: 0.8377 log2
  Δ log2 ANKRD46 mRNA: 1.489 log2
  Δ log2 ANPEP mRNA: 1.016 log2
  Δ log2 ANTXR1 mRNA: −1.152 log2
  Δ log2 APOH mRNA: 1.465 log2
  Δ log2 APP mRNA: 0.7951 log2
  Δ log2 AQP3 mRNA: 1.683 log2
  Δ log2 ARFRP1 mRNA: −0.7079 log2
  Δ log2 ARG2 mRNA: 0.8026 log2
  Δ log2 ARHGAP11A mRNA: −0.8591 log2
  Δ log2 ARHGDIA mRNA: −1.479 log2
  Δ log2 ARID5B mRNA: 0.8176 log2
  Δ log2 ARL2BP mRNA: 0.9301 log2
  Δ log2 ARTS-1 mRNA: 0.886 log2
  Δ log2 ASNS mRNA: −0.7092 log2
  Δ log2 ATP6V0E mRNA: 1.493 log2
  Δ log2 ATP6V1D mRNA: −1.206 log2
  Δ log2 B4GALT4 mRNA: −2.01 log2
  Δ log2 B4GALT6 mRNA: −0.8145 log2
  Δ log2 BCL2A1 mRNA: −0.8657 log2
  Δ log2 BCL6 mRNA: 1.023 log2
  Δ log2 BF mRNA: 1.375 log2
  Δ log2 BHLHB2 mRNA: −0.7321 log2
  Δ log2 BTG2 mRNA: 0.7161 log2
  Δ log2 C1R mRNA: 1.372 log2
  Δ log2 C1orf121 mRNA: −1.019 log2
  Δ log2 C2orf26 mRNA: −1.688 log2
  Δ log2 C2orf33 mRNA: −1.066 log2
  Δ log2 C3 mRNA: 1.751 log2
  Δ log2 C5orf15 mRNA: −1.099 log2
  Δ log2 C6orf75 mRNA: −1.159 log2
  Δ log2 C8orf1 mRNA: −1.201 log2
  Δ log2 C8orf32 mRNA: −1.162 log2
  Δ log2 C19orf28 mRNA: −1.583 log2
  Δ log2 CA11 mRNA: 0.8832 log2
  Δ log2 CCND1 mRNA: −0.7871 log2
  Δ log2 CCNG1 mRNA: 0.7209 log2
  Δ log2 CD9 mRNA: −1.226 log2
  Δ log2 CDC37L1 mRNA: −1.198 log2
  Δ log2 CDH4 mRNA: −1.072 log2
  Δ log2 CDH17 mRNA: 1.248 log2
  Δ log2 CEACAM1 mRNA: 1.002 log2
  Δ log2 CEBPD mRNA: 0.9196 log2
  Δ log2 CFH /// CFHL1 mRNA: 0.727 log2
  Δ log2 CGI-38 mRNA: 1.152 log2
  Δ log2 CGI-48 mRNA: 1.409 log2
  Δ log2 CHGB mRNA: 2.066 log2
  Δ log2 CHST11 mRNA: −0.8983 log2
  Δ log2 CMKOR1 mRNA: −0.9537 log2
  Δ log2 COL4A1 mRNA: −1.251 log2
  Δ log2 COL4A2 mRNA: −1.104 log2
  Δ log2 COPS7A mRNA: −0.7137 log2
  Δ log2 CP mRNA: 2.115 log2
  Δ log2 CPE mRNA: 0.8454 log2
  Δ log2 CPS1 mRNA: 0.7371 log2
  Δ log2 CTDSP2 mRNA: 1.119 log2
  Δ log2 CTDSPL mRNA: 0.7348 log2
  Δ log2 CTGF mRNA: 0.7924 log2
  Δ log2 CTPS mRNA: −1.07 log2
  Δ log2 CTSS mRNA: 0.9282 log2
  Δ log2 CXCL5 mRNA: 0.8706 log2
  Δ log2 CYP3A5 mRNA: 0.8111 log2
  Δ log2 DAAM1 mRNA: 0.7598 log2
  Δ log2 DCBLD2 mRNA: −1.329 log2
  Δ log2 DCUN1D1 mRNA: −1.329 log2
  Δ log2 DDC mRNA: 1.008 log2
  Δ log2 DDX3Y mRNA: 0.738 log2
  Δ log2 DHRS2 mRNA: 1.489 log2
  Δ log2 DIO2 mRNA: −1.213 log2
